Laboratory results as given in patent US12268683B2, “Compounds and methods for synergistic activation of M channels” (THE REGENTS OF THE UNIVERSITY OF CALIFORNIA, priority 2018, dated 2025).
Read-outs that look alike come from different tables or passages of the source.

Columns and labels:
KCNQ2 = KCNQ2 (Homo sapiens, UniProt O43526); assay: TEVC of homomeric KCNQ2 expressed in Xenopus oocytes; assay type: cell-based
Excerpt: (§1) cRNA transcripts encoding human KCNA1, KCNQ1, KCNQ2, KCNQ3, KCNQ4, or KCNQ5 were generated by in vitro transcription using the T7 polymerase message machine kit (Thermo Fisher Scientific), after vector linearization, from cDNA sub-cloned into plasmids incorporating X. laevis β-globin 5′ and 3′ UTRs flanking the coding region to enhance translation and cRNA stability. cRNA was quantified by spectrophotometry. Mutant cDNAs were generated by site-directed mutagenesis using a QuikChange kit according to manufacturer's protocol (Stratagene, San Diego, Calif.) and corresponding cRNAs prepared as above. Defolliculated stage V and VI X. laevis oocytes (Ecocyte Bioscience, Austin, Tex.) were injected with Kv channel a subunit cRNAs (10 ng total per oocyte). Oocytes were incubated at 16° C. in Barth's saline solution (Ecocyte) containing penicillin and streptomycin, with daily washing, for 3-5 days prior to two-electrode voltage-clamp (TEVC) recording.
(§2) TEVC recording was performed at room temperature with an OC-725C amplifier (Warner Instruments, Hamden, Conn.) and pClamp10.2 software (Molecular Devices, Sunnyvale, Calif.) 3-5 days after cRNA injection as described in the section above. Oocytes were placed in a small-volume oocyte bath (Warner) and viewed with a dissection microscope. Chemicals were sourced from Sigma. Bath solution was (in mM): 96 NaCl, 4 KCl, 1 MgCl2, 1 CaCl2. 10 HEPES (pH 7.6). […] MTX (DMSO), sorbic acid (ethanol), and glutaconic acid (molecular grade H2O) were stored at −20° C. as 1 M stocks. Oleamide was stored as a 1 mM stock in ethanol at 4° C. Palmitic acid was conjugated with bovine serum albumin as a 1 mM stock and stored at −20° C. All compounds were diluted to working concentrations each experimental day. All compounds were introduced to the recording bath via gravity perfusion at a constant flow of 1 ml/min for 3 min prior to recording. Pipettes were of 1-2 MΩ resistance when filled with 3 M KCl. Currents were recorded in response to pulses between −80 and +40 mV at 20 mV intervals, or a single pulse to +40 mV, from a holding potential of −80 mV, to yield current-voltage relationships, current magnitude, and for quantifying activation rate. TEVC data analysis was performed with Clampfit10.2 (Molecular Devices) and Graphpad Prism software (GraphPad, San Diego, Calif., USA); values are stated as mean±SEM. Normalized tail currents were plotted versus prepulse voltage and fitted with a single Boltzmann function:
(§3) cRNA transcripts encoding human KCNQ2, KCNQ3, KCNQ4, KCNQ5 (Kv7.2-Kv7.5) were generated by in vitro transcription using the T7 polymerase mMessage mMachine kit (Thermo Fisher Scientific), after vector linearization, from cDNA sub-cloned into plasmids incorporating Xenopus laevis β-globin 5′ and 3′ UTRs flanking the coding region to enhance translation and cRNA stability. cRNA was quantified by spectrophotometry. Mutant KCNQ2 and KCNQ3 cDNAs were generated with site-directed mutagenesis using a QuikChange kit according to the manufacturer's protocol (Stratagene, San Diego, Calif.) and corresponding cRNAs prepared as above. Defolliculated stage V and VI Xenopus laevis oocytes (Ecocyte Bioscience, Austin, Tex.) were injected with KCNQ channel α subunit cRNAs (5-10 ng). The oocytes were incubated at 16° C. in Barth's saline solution (Ecocyte) containing penicillin and streptomycin, with daily washing, for 2-5 days prior to two-electrode voltage-clamp (TEVC) recording.
(§4) TEVC recording was performed at room temperature using a OC-725C amplifier (Warner Instruments, Hamden, Conn.) and pClamp8 software (Molecular Devices, Sunnyvale, Calif.) 2-5 days after cRNA injection as described in the section above. The oocytes were placed in a small-volume oocyte bath (Warner) and viewed with a dissection microscope. Unless otherwise stated, chemicals were sourced from Sigma. Bath solution was (in mM): 96 NaCl, 4 KCl, 1 MgCl2, 1 CaCl2, 10 HEPES (pH 7.6).

KCNQ3* (KCNQ3-A315T) = KCNQ3* (KCNQ3-A315T) (Homo sapiens, UniProt O43525, A315T); assay: TEVC of homomeric KCNQ3* expressed in Xenopus oocytes; assay type: cell-based
Excerpt: as §1, §2, §3, §4

[1] = system: pentylene tetrazole-induced seizures; assay: PTZ chemoconvulsant assay; assay type: in vivo, mouse; conditions: for clonic seizure incidence: alone
Excerpt: We compared anticonvulsant activities of test compounds in male C57BL/6 mice (Charles River) aged 2-3 months. Mice were housed and used according to the recommendations in the Guide for the Care and Use of Laboratory Animals of the National Institutes of Health (NIH Publication, 8th edition, 2011). The study protocol was approved by the Institutional Animal Care and Use Committee of University of California, Irvine, which confirmed that all relevant ethical regulations were adhered to. Chemicals were sourced from Sigma (St. Louis, Mo., USA). A pentylene tetrazole (PTZ) chemoconvulsant assay was used-. […] Following the PTZ injection, mice were caged individually and an observer (GWA) blinded to the drug used recorded, over 20 min, clonic and tonic seizure incidence, and seizure-related mortality.
We quantified the anticonvulsant activities of (E)-2-dodecenal and tridecanal in male C57BL/6 mice (Charles River, Wilmington, Mass.) aged 2-3 months. The mice were housed and used according to the recommendations in the Guide for the Care and Use of Laboratory Animals of the National Institutes of Health (NIH Publication, 8th edition, 2011). The study protocol was approved by the Institutional Animal Care and Use Committee of University of California, Irvine. The chemicals were sourced from Sigma (St. Louis, Mo., USA). We used a pentylene tetrazole (PTZ) chemoconvulsant assay as we previously described (30). We injected the mice intraperitoneally with (E)-2-dodecenal (2 or 20 mgkg^−1) (with or without 2.5 mgkg^−1 XE991) or tridecanal (20 mgkg^−1) solubilized in PBS, or vehicle control (PBS), and then 30 minutes later we injected mice intraperitoneally with 80 mgkg-PTZ. Following the PTZ injection, the mice were caged individually and an observer (GWA) blinded to the experimental condition timed the latency to first seizure.
We compared anticonvulsant activities of 3FMSG in male C57BL/6 mice (Charles River) aged 2-3 months. Mice were housed and used according to the recommendations in the Guide for the Care and Use of Laboratory Animals of the National Institutes of Health (NIH Publication, 8th edition, 2011). The study protocol was approved by the Institutional Animal Care and Use Committee of University of California, Irvine, which confirmed that all relevant ethical regulations were adhered to. Chemicals were sourced from Sigma (St. Louis, Mo., USA). We used a pentylene tetrazole (PTZ) chemoconvulsant assay as we previously described^27. Mice were injected intraperitoneally with 3FMSG (5 mg kg^−1) or vehicle control (PBS) and then 30 minutes later injected intraperitoneally with 80 mg kg^−1 PTZ. Following the PTZ injection, mice were caged individually and an observer (GWA) blinded to the drug used recorded seizure activity over 20 minutes.

KCNQ4 = KCNQ4 (Homo sapiens, UniProt P56696); assay: TEVC of homomeric KCNQ4 expressed in Xenopus oocytes; assay type: cell-based
Excerpt: as §1, §2, §3, §4

CS(=O)(=O)N(CC(=O)O)c1cccc(F)c1 [3FMSG]
effect of tenfold excess (100 μM) on KCNQ2 activation by 2FPG (10 μM) (KCNQ2): subtly reduced the efficacy
effect on KCNQ2 (in words) (KCNQ2): negligible effects
relative Na+ permeability of KCNQ3* compared to K+ (KCNQ3* (KCNQ3-A315T)): induces a similar increase in relative Na^+ permeability
EC50 (KCNQ3* (KCNQ3-A315T); Example 4, read-out: EC50, ΔV0.5act of KCNQ3*): 0.018 ± 0.012 µM
incidence of PTZ-induced tonic seizures ([1]; 5 mg/kg i.p.): reduced by threefold
effect on KCNQ4 (in words) (KCNQ4): negligible effects

CCCCCCCCC/C=C/C=O [(E)-2-dodecenal]
EC50 (KCNQ2; read-out: EC50 of KCNQ2 activation by (E)-2-dodecenal): 0.06 ± 0.01 µM
effect on KCNQ3* (in words) (KCNQ3* (KCNQ3-A315T)): insensitive
latency to first PTZ-induced seizure ([1]; 2 mgkg−1 i.p.): threefold
latency to first PTZ-induced seizure ([1]; 20 mgkg−1 i.p.): > threefold

CC(=O)c1c(O)c(C)c(O)c(Cc2c(O)c3c(c(C(=O)/C=C/c4ccccc4)c2O)OC(C)(C)C=C3)c1O [MTX, mallotoxin]
shift of midpoint voltage of KCNQ2 activation (KCNQ2; MTX 30 μM): −24 mV
EC50 (KCNQ2; −60 mV, read-out: EC50 of KCNQ2 activation): 6.4 µM
shift of midpoint voltage of KCNQ3* activation (KCNQ3* (KCNQ3-A315T); MTX 30 μM): −9 mV
EC50 (KCNQ3* (KCNQ3-A315T); −60 mV, read-out: EC50 of KCNQ3* activation): 13 µM
clonic seizure incidence ([1]; 10 mg/kg i.p.): neither compound reduced clonic seizures alone
clonic seizure incidence ([1]; 20 mg/kg i.p.): halved
suppression of PTZ-induced tonic seizures ([1]; individually): ineffective
shift of midpoint voltage of KCNQ4 activation (KCNQ4; MTX 30 μM): −17 mV
EC50 (KCNQ4; −60 mV, read-out: EC50 of KCNQ4 activation): 20.2 µM

NCC1(CC(=O)O)CCCCC1 [gabapentin, reference compound]
effect on KCNQ2 (in words) (KCNQ2): insensitive
effect on KCNQ3* (in words) (KCNQ3* (KCNQ3-A315T)): activated
maximal fold increase in KCNQ3 current (KCNQ3* (KCNQ3-A315T); −60 mV): 4 fold
EC50 (KCNQ3* (KCNQ3-A315T); −60 mV, read-out: EC50 of KCNQ3* activation by gabapentin): 0.0053 µM
effect on KCNQ4 (in words) (KCNQ4): insensitive

NCC(=O)O [glycine, reference compound]
effect on KCNQ2 (in words) (KCNQ2): unable to open
effect on KCNQ3* (in words) (KCNQ3* (KCNQ3-A315T)): no effects
effect on KCNQ4 (in words) (KCNQ4): unable to open
